Test results: PubChem BioAssay (NCI)
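Each compound was tested at five concentrations against cells in 96-well plates for 48 hours. Here, GI50 denotes the concentration required for 50% inhibition of growth. At the TGI there is no net growth.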

Key:
Assay in all cases: inhibition of tumour cell growth, NCI panel, 48 h; in the data active = GI50 below about 0.43 µM; inactive = the rest
[1] = tested on: SF-268 CNS
[2] = tested on: NCI-H522 lung
[3] = tested on: OVCAR-3 ovarian
[4] = tested on: NCI-H460 lung
[5] = tested on: HL-60(TB) leukemia
[6] = tested on: PC-3 prostate
[7] = tested on: CAKI-1 renal
[8] = tested on: MCF7 breast
[9] = tested on: HCT-116 colon
[10] = tested on: UACC-62 melanoma
[11] = tested on: SNB-19 CNS
[12] = tested on: MDA-MB-435
[13] = tested on: SNB-75 CNS
[14] = tested on: COLO 205 colon
[15] = tested on: KM12 colon
[16] = tested on: CCRF-CEM leukemia
[17] = tested on: OVCAR-4 ovarian
[18] = tested on: HS 578T breast
[19] = tested on: MOLT-4 leukemia
[20] = tested on: SF-295 CNS
[21] = tested on: HCT-15 colon
[22] = tested on: DU-145 prostate
[23] = tested on: SK-OV-3 ovarian
[24] = tested on: SF-539 CNS
[25] = tested on: T-47D breast
[26] = tested on: MALME-3M melanoma
[27] = tested on: OVCAR-5 ovarian
[28] = tested on: HOP-92 NSCLC
[29] = tested on: A549 NSCLC
[30] = tested on: NCI-H23 lung
[31] = tested on: 786-0 renal
[32] = tested on: BT-549 breast
[33] = tested on: SN12C renal
[34] = tested on: NCI/ADR-RES ovarian
[35] = tested on: HCC-2998 colon
[36] = tested on: IGROV1 ovarian
[37] = tested on: RXF 393 renal
[38] = tested on: A498 renal
[39] = tested on: U251 CNS
[40] = tested on: OVCAR-8 ovarian
[41] = tested on: ACHN renal
[42] = tested on: UO-31 renal
[43] = tested on: SK-MEL-2 melanoma
[44] = tested on: EKVX NSCLC
[45] = tested on: K-562 leukemia
[46] = tested on: LOX IMVI melanoma
[47] = tested on: MDA-MB-231 breast
[48] = tested on: NCI-H226 lung
[49] = tested on: SW-620 colon
[50] = tested on: HOP-62 NSCLC
[51] = tested on: TK-10 renal
[52] = tested on: HT29 colon
[53] = tested on: SK-MEL-28 melanoma
[54] = tested on: M14 melanoma
[55] = tested on: RPMI-8226 leukemia
[56] = tested on: SK-MEL-5 melanoma
[57] = tested on: SR leukemia
[58] = tested on: UACC-257 melanoma

COc1cccc(N2CC(O)=C(c3nc4ccccc4s3)C2=N)c1
> 70.3 µM: TGI [42]
active: GI50 [2] 0.0588 µM | GI50 [3] 0.269 µM | GI50 [4] 0.24 µM | GI50 [5] 0.26 µM | GI50 [6] 0.32 µM | GI50 [7] 0.11 µM | GI50 [8] 0.289 µM | GI50 [9] 0.35 µM | GI50 [10] 0.239 µM | GI50 [12] 0.0478 µM | GI50 [15] 0.234 µM | GI50 [16] 0.243 µM | GI50 [19] 0.166 µM | GI50 [20] 0.0744 µM | GI50 [21] 0.09 µM | GI50 [26] 0.266 µM | GI50 [31] 0.363 µM | GI50 [33] 0.379 µM | GI50 [34] 0.286 µM | GI50 [35] 0.23 µM | GI50 [36] 0.277 µM | GI50 [38] 0.33 µM | GI50 [39] 0.42 µM | GI50 [41] 0.307 µM | GI50 [45] < 0.0204 µM | GI50 [47] 0.359 µM | GI50 [49] 0.341 µM | GI50 [52] 0.252 µM | GI50 [54] 0.35 µM | GI50 [56] 0.211 µM
> 25.2 µM: TGI [30]
> 100 µM: TGI [4] | TGI [5] | TGI [6] | TGI [7] | TGI [8] | TGI [11] | TGI [14] | TGI [15] | TGI [16] | TGI [17] | TGI [19] | TGI [22] | TGI [25] | TGI [26] | TGI [32] | TGI [43] | TGI [44] | TGI [45] | TGI [46] | TGI [48] | TGI [49] | TGI [55] | TGI [57]
23 µM: TGI [56]
> 95 µM: TGI [27]
> 57.2 µM: TGI [28]
20 µM: TGI [38]
3.57 µM: TGI [35]
70.2 µM: TGI [51]
19.5 µM: TGI [39]
> 65 µM: TGI [53]
inactive: GI50 [1] 1.51 µM | GI50 [11] 0.702 µM | GI50 [14] 0.472 µM | GI50 [17] 6.19 µM | GI50 [18] 0.47 µM | GI50 [22] 1.75 µM | GI50 [23] 0.702 µM | GI50 [24] 0.451 µM | GI50 [25] 46.5 µM | GI50 [28] 3.99 µM | GI50 [29] 0.656 µM | GI50 [30] 0.652 µM | GI50 [32] 0.726 µM | GI50 [37] 0.488 µM | GI50 [40] 0.838 µM | GI50 [42] 0.717 µM | GI50 [43] 7.14 µM | GI50 [44] 9.24 µM | GI50 [46] 0.459 µM | GI50 [48] 7.21 µM | GI50 [50] 0.56 µM | GI50 [51] 3.24 µM | GI50 [53] 0.468 µM
> 44.7 µM: TGI [18]
45.1 µM: TGI [37]
26.6 µM: TGI [24]
0.362 µM: TGI [12]
> 23.2 µM: TGI [34]
> 39.3 µM: TGI [52]
3.42 µM: TGI [47]
2.61 µM: TGI [10]
> 56.6 µM: TGI [29]
5.63 µM: TGI [33]
> 47.2 µM: TGI [9]
1.98 µM: TGI [13]
23.4 µM: TGI [50]
0.82 µM: TGI [3]
> 94.5 µM: TGI [1]
65.9 µM: TGI [40]
6.09 µM: TGI [20]
48.8 µM: TGI [54]
33.5 µM: TGI [23]
31.2 µM: TGI [21]
> 75.6 µM: TGI [36]
37.1 µM: TGI [31]
> 60.2 µM: TGI [41]

O=C(Nc1cccc([N+](=O)[O-])c1)c1cccc(C(=O)Nc2cccc([N+](=O)[O-])c2)c1
> 82.8 µM: TGI [23]
inactive: GI50 [1] 5.22 µM | GI50 [2] 3.32 µM | GI50 [3] > 100 µM | GI50 [4] > 61.9 µM | GI50 [5] > 100 µM | GI50 [6] > 100 µM | GI50 [7] > 100 µM | GI50 [8] > 100 µM | GI50 [9] 41.9 µM | GI50 [10] > 100 µM | GI50 [11] 28.6 µM | GI50 [12] > 100 µM | GI50 [13] 8.42 µM | GI50 [14] > 100 µM | GI50 [15] > 100 µM | GI50 [16] > 100 µM | GI50 [17] > 100 µM | GI50 [18] 7.5 µM | GI50 [19] > 100 µM | GI50 [20] 23.2 µM | GI50 [21] > 100 µM | GI50 [22] > 84.2 µM | GI50 [23] 13 µM | GI50 [58] > 100 µM | GI50 [24] 27.8 µM | GI50 [25] 56.9 µM | GI50 [26] > 100 µM | GI50 [27] > 100 µM | GI50 [28] 8.85 µM | GI50 [29] > 100 µM | GI50 [30] > 72.4 µM | GI50 [31] 25.6 µM | GI50 [32] 9.05 µM | GI50 [33] 60.3 µM | GI50 [34] > 100 µM | GI50 [35] > 100 µM | GI50 [36] 33.9 µM | GI50 [37] 14.7 µM | GI50 [38] 20.2 µM | GI50 [39] 7.15 µM | GI50 [40] 14 µM | GI50 [41] > 100 µM | GI50 [42] > 100 µM | GI50 [44] > 59.9 µM | GI50 [45] > 100 µM | GI50 [46] > 100 µM | GI50 [47] 12.1 µM | GI50 [48] > 100 µM | GI50 [49] > 100 µM | GI50 [50] 21.9 µM | GI50 [51] 9.71 µM | GI50 [52] > 100 µM | GI50 [53] > 100 µM | GI50 [54] > 100 µM | GI50 [55] > 100 µM | GI50 [56] > 100 µM | GI50 [57] > 100 µM
72.2 µM: TGI [13]
> 100 µM: TGI [1] | TGI [2] | TGI [3] | TGI [4] | TGI [5] | TGI [6] | TGI [7] | TGI [8] | TGI [9] | TGI [10] | TGI [11] | TGI [12] | TGI [14] | TGI [15] | TGI [16] | TGI [17] | TGI [19] | TGI [21] | TGI [22] | TGI [58] | TGI [24] | TGI [25] | TGI [26] | TGI [27] | TGI [29] | TGI [30] | TGI [31] | TGI [32] | TGI [33] | TGI [34] | TGI [35] | TGI [36] | TGI [40] | TGI [41] | TGI [42] | TGI [44] | TGI [45] | TGI [46] | TGI [47] | TGI [48] | TGI [49] | TGI [52] | TGI [53] | TGI [54] | TGI [55] | TGI [56] | TGI [57]
38.8 µM: TGI [37]
> 30.7 µM: TGI [18]
79.5 µM: TGI [38]
> 68.2 µM: TGI [39]
60.7 µM: TGI [28]
> 61.3 µM: TGI [51]
> 70.5 µM: TGI [50]
> 90.4 µM: TGI [20]
